For orientation: solubility (thermodynamic) means the concentration in solution at equilibrium with solid. By pIC50 is commonly meant the negative decadic logarithm of the IC50, by convention in mol/L. Low values mean a high IC50, high ones a low IC50. As usually defined, the kinetic solubility is solubility judged after dilution from a stock solution rather than from solid.

The text below walks through data of patent US10676474B2, “1,6-naphthyridine derivatives as CDK4/6 inhibitor” (CSTONE PHARMACEUTICALS, priority 2016, dated 2020).

pIC50: −log10 of the molar value. Converted amounts (≈) assume the structure as drawn.

Data set [1] is described as follows: Thermodynamic solubility test (shake-flask, HPLC). In kind it is physicochemical. The note with it: phosphate buffer, aqueous buffer, thermodynamic from solid; pH = 7.4, Table 3-2; read-out: Thermodynamic solubility. As to the method:
The thermodynamic solubility of the compounds was determined by the shake-flask method and HPLC. The solubility of the compounds is an important property that affects drug screening of compounds and the absorption of compounds in animals and humans. A saturated solution of the compound was first given and quantitatively tested by HPLC to obtain the solubility of the compound.
50 mM phosphate buffer solution, pH 7.4.
Not less than 2 mg of the sample powder was weighed into a vial of Whatman miniuniprep. If test of the thermodynamic solubility of a sample in multiple buffer solutions is required, an individual vial is required for each test.
450 μL of the buffer solution (pH 7.4) was added to each Whatman miniuniprep vial.
After the addition of the buffer solution, the Whatman miniuniprep cap with a filter was mounted and pressed above the liquid level so that the filter could contact with the buffer solution during shaking.
And the observation of the solution was recorded.
It was shaked at 550 RPM for 24 hours at room temperature (about 22 to 25° C.).
The Whatman Miniunipreps filter cap was pressed to the bottom to give the filtrate of the sample solubility solution. All sample vials should be filtered before and after insoluble substances and their leakage.
The buffer was diluted 50 folds to give a sample diluent.
Three UV standards from low to high concentration were injected into HPLC, followed by the injection of the dilutions and supernatants of the tested compounds. The tested sample was injected twice.

A short description of data set [2]: Metabolic stability in human liver microsomes. The format is in vitro ADME. As to conditions: 0.5 mg/mL protein, read-out: Human T1/2. As to the method:
(§1) This assay is used to test the metabolic stability of tested substances in rats, mice and human liver microsomes.
(§2) 1) The tested compound with concentration of 1 μM was co-incubated with liver microsomes with a protein concentration of 0.5 mg/mL under a reducing coenzyme II regeneration system in a 37° C. water bath.
(§3) 2) The positive controls include: testosterone (3A4 substrate), propafenene (2D6 substrate) and diclofenac (2C9 substrate). The incubation condition of the positive controls was consistent with that of the compound.
(§4) 3) The reaction time points were: 0, 5, 10, 20, 30 and 60 minutes, and the reaction is terminated at the corresponding time point using a termination solution containing an internal standard. The compounds were also incubated with microsomes for 60 minutes without a reducing coenzyme II regeneration system and served as a negative control.
(§5) 4) Each time point was a single point (n=1).
(§6) 5) The sample was determined by LC/MS/MS, and the compound concentration was shown as the ratio of the peak area of the compound to the peak area of the internal standard (non-standard).
(§7) 6) In the project report summary, the half-life and the clearance rate would be calculated.
A general note: Liver microsomes are vesicles of endoplasmic reticulum, rich in cytochrome P450 enzymes.

For data set [3], the target named is T1, CDK6/cyclin D1 (Homo sapiens, UniProt Q00534).
T1 construct: purchased Life technology
The data set is described as follows: Enzyme activity assay CDK6/cyclin D1 (Lance Ultra). In kind it is biochemical. As to conditions: 0.8 nM CDK6/cyclin D1, 250 μM ATP, 180 minutes. As to the method:
(§8) CDK4/cyclin D1, CDK6/cyclin D1 (Life technology). ULight labeled polypeptide substrates ULight-4E-BP1 and ULight-MBP (PerkinElmer). Europium labeled anti-myelin basic protein antibody and europium labeled rabbit-derived antibody (PerkinElmer). Envision Multi-label Analyzer (PerkinElmer) for signal detection.
They were respectively dissolved in an enzyme buffer solution comprising: 50 mM hydroxyethylpiperazine ethanesulfuric acid solution at pH 7.5, 1 mM ethylenediaminetetraacetic acid, 10 mM magnesium chloride, 0.01% Brij-35, 2 mM dithiothreitol. After the reaction was started, the OptiPlate 384-well plate was sealed with a top heat seal film TopSeal-A and incubated at room temperature for 180 minutes.
(§9) The termination buffer solution of the enzymatic reaction was prepared, and EDTA was dissolved in a 1-fold diluted assay buffer solution. The reaction was terminated and incubated at room temperature for 5 minutes. 5 μL of the assay mixed solution (prepared with europium labeled anti-myelin basic protein antibody and europium labeled rabbit-derived antibody, respectively) was added to the reactions of CDK4/cyclin D1 and CDK6/cyclin D1, respectively, and incubated at room temperature for 60 minutes. The reaction signal was detected by Envision according to the time-resolved fluorescence resonance energy transfer theory.

Data set [4] deals with T2, CDK4/cyclin D1 (Homo sapiens, UniProt P11802).
T2 construct: purchased Life technology
Nature of the data set: Enzyme activity assay CDK4/cyclin D1 (Lance Ultra). In kind it is biochemical. As to conditions: 0.3 nM CDK4/cyclin D1, 350 μM ATP, 180 minutes. The method, then:
as §8
They were respectively dissolved in an enzyme buffer solution comprising: 50 mM hydroxyethylpiperazine ethanesulfuric acid solution at pH 7.5, 1 mM ethylenediaminetetraacetic acid, 10 mM magnesium chloride, 0.01% Brij-35, 2 mM dithiothreitol. After the reaction was begun, the OptiPlate 384-well plate was sealed with a top heat seal film TopSeal-A, and incubated at room temperature for 180 minutes.
as §9

A short description of data set [5]: In vivo pharmacodynamic study (3), HCT-116 model, animal weight. As to conditions: 60 mg/kg(D0-D11), 120 mg/kg (D12-D20), PO. On the set-up: species or system BALB/c nude mice. As to the method: The in vivo pharmacodynamic experiments were performed on the BALB/c nude mice implanted subcutaneously with the colorectal cancer HCT-116 model.
BALB/c nude mice, female, 6-8 weeks, weighing approximately 18-22 g, were placed in a single ventilated cage (3-5 mice per cage) under a special pathogen free environment. All of the cages, beddings and water were disinfected before use. All of the animals were permitted free access to a standard certified commercial laboratory diet. A total of 48 mice purchased from Shanghai Lingchang Biotechnology Co., Ltd. were used for the study. Each mouse was implanted subcutaneously with 0.2 mL of 5×10^6 HCT-116 cells in the right back for tumor growth. The dosing in groups initiated when the average tumor volume reached about 132 mm^3. The tumor volume was measured twice a week using a two-dimensional caliper, and the volume was measured in mm^3, calculated by the following the formula: V=0.5 a×b^2, wherein, a and b were the long and short diameters of the tumor, respectively. The antitumor efficacy was determined by dividing the average increase in the tumor volume of the animals treated with the compound by the average increase in the tumor volume of the untreated animals.

Data set [6] in a line: physchem. As to conditions: phosphate buffer, pH 7.4, aqueous buffer, kinetic from dmso stock.
Data set [7] in a line: Metabolic stability in rat liver microsomes. The format is in vitro ADME. The note with it: 0.5 mg/mL protein, read-out: Rats T1/2. The method, then: as §1, §2, §3, §4, §5, §6, §7

T1 sequence (Q00534 whole entry): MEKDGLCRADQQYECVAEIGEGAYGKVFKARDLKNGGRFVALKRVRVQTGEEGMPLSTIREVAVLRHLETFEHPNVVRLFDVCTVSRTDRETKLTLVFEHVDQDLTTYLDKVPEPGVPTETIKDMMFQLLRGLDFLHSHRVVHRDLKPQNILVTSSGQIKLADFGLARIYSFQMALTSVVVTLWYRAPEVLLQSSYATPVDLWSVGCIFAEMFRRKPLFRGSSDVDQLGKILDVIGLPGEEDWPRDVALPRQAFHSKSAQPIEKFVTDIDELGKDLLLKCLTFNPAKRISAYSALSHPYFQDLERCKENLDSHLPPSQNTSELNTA
T1 sequence (P24385 whole entry partner): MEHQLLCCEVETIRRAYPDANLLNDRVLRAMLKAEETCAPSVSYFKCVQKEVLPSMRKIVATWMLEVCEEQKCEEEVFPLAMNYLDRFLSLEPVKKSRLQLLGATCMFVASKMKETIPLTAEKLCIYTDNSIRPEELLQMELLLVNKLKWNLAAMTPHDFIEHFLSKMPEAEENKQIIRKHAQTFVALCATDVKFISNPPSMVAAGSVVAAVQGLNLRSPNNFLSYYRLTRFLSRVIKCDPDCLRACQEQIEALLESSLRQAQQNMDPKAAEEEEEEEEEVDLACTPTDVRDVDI
T2 sequence (P11802 whole entry): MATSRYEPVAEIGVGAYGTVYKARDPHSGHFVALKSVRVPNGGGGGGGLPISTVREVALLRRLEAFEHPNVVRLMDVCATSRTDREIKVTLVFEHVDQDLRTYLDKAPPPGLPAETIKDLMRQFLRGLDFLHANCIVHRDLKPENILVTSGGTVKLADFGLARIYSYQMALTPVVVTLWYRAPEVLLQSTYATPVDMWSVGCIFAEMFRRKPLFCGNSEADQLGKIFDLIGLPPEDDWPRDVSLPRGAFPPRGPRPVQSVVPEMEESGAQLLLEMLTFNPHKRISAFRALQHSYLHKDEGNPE
T2 sequence (P24385 whole entry partner): as the sequence (P24385 whole entry partner) above

With `CC(=O)c1c(C)c2cnc(Nc3cnc(N4CCN(CCN(C)C)CC4)cn3)cc2n(C2CCCC2)c1=O` [Example 34], the solubility (thermodynamic) at 24 h in data set [1] amounted to 6.42 mM (≈ 3330 µg/mL). Further, the figures for the half-life at 1 μM in data set [2] and in data set [7] were 43.1 min and more than 145 min, respectively. The pIC50 was 8.44 in data set [3] and 8.13 in data set [4]. Moreover, the “Changes in animal weight, 0 day” value in data set [5] (QD × 21, 0 day) stood at 0%. In addition, the “Changes in animal weight, 7 days” value in data set [5] (QD × 21, 7 days) was determined as 2.5%. Besides, the “Changes in animal weight, 14 days” value in data set [5] (QD × 21, 14 days) is on record as −2.3%. Besides, in data set [5] (QD × 21, 21 days), the “Changes in animal weight, 21 days” value is −5.9%. Besides, the kinetic solubility at 24 h in data set [6] was 0.194 mM (≈ 101 µg/mL).
